ChEMBL document CHEMBL5291721, “A preclinical secondary pharmacology resource illuminates target-adverse drug reaction associations of marketed drugs” (Nat Commun, 2023)

How the values were obtained:
[1] = molecular target: T1, 5-hydroxytryptamine receptor 2C (Homo sapiens, UniProt P28335)
T1 sequence (P28335 whole entry): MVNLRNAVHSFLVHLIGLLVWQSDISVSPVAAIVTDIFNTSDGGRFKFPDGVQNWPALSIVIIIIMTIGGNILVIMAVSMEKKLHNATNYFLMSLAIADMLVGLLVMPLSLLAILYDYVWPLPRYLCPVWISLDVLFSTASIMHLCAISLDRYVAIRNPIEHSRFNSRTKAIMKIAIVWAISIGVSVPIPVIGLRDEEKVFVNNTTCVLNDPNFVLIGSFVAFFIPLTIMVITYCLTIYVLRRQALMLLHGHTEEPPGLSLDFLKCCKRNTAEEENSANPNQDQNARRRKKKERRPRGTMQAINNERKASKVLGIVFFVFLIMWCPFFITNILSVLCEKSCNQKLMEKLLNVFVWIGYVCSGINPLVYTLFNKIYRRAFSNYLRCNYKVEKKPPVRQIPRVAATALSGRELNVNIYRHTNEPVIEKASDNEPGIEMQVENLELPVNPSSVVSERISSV

D(1A) dopamine receptor = D(1A) dopamine receptor (Homo sapiens, UniProt P21728); format: functional, cell-based
Sequence of D(1A) dopamine receptor (P21728 whole entry): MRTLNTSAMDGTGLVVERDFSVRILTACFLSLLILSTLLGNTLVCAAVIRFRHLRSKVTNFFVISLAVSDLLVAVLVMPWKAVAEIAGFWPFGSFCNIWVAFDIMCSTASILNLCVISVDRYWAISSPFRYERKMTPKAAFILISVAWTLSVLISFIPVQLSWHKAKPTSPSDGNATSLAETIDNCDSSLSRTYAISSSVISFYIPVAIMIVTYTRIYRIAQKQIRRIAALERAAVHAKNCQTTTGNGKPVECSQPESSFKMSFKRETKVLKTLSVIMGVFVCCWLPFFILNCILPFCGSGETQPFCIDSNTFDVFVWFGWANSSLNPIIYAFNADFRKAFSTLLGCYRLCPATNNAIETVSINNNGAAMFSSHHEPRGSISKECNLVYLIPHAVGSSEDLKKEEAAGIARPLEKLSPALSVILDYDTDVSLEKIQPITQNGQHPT

Glucocorticoid receptor = molecular target: T2, Glucocorticoid receptor (Homo sapiens, UniProt P04150)
T2 sequence (P04150 whole entry): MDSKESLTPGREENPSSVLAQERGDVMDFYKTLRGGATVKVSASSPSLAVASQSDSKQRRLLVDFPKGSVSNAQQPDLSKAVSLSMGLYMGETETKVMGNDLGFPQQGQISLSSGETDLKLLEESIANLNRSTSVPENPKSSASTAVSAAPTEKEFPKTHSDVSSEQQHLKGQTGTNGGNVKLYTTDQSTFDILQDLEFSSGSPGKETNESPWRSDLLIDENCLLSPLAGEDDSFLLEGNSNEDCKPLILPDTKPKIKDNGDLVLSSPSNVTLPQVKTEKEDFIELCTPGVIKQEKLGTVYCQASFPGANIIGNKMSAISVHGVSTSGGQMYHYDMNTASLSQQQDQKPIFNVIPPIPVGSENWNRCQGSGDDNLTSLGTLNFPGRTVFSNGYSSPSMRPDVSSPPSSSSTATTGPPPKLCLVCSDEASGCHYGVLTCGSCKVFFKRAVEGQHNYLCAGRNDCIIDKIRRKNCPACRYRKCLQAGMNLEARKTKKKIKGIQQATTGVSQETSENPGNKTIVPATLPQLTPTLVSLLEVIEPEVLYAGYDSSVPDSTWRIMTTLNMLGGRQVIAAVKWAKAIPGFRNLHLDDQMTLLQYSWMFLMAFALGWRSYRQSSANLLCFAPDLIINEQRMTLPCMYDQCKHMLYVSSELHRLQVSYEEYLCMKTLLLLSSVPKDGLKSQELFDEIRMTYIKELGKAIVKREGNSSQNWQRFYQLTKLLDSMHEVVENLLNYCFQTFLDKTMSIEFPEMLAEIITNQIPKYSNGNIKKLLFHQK

Vasopressin V2 receptor = Vasopressin V2 receptor (Homo sapiens, UniProt P30518)
Sequence of Vasopressin V2 receptor (P30518 whole entry): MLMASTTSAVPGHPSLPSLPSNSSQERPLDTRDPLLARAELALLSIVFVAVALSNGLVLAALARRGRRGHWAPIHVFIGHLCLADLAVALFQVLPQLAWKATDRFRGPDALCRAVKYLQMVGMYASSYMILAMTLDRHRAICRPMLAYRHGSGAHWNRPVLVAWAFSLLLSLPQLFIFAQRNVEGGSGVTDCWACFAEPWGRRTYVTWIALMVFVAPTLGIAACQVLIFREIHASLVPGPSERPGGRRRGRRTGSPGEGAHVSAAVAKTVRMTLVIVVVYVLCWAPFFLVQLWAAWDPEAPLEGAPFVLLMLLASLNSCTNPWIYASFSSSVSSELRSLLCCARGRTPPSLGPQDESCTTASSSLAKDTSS

[2] = molecular target: T3, Amine oxidase [flavin-containing] A (Homo sapiens, UniProt P21397); format: functional
T3 sequence (P21397 whole entry): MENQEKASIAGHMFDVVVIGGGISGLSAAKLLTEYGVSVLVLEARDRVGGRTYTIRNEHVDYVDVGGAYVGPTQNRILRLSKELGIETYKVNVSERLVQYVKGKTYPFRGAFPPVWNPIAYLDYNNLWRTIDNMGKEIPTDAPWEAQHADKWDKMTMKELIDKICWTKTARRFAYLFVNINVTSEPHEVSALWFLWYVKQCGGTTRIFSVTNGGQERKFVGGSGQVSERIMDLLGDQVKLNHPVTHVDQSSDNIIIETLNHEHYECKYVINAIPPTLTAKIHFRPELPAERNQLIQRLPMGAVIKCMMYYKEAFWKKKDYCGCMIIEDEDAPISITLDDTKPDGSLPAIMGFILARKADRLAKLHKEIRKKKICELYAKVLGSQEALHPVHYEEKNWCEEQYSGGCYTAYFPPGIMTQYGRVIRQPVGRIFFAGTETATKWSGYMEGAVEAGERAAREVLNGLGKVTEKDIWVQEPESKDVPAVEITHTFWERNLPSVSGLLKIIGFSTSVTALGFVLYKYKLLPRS

Motilin receptor = Motilin receptor (Homo sapiens, UniProt O43193)
Sequence of Motilin receptor (O43193 whole entry): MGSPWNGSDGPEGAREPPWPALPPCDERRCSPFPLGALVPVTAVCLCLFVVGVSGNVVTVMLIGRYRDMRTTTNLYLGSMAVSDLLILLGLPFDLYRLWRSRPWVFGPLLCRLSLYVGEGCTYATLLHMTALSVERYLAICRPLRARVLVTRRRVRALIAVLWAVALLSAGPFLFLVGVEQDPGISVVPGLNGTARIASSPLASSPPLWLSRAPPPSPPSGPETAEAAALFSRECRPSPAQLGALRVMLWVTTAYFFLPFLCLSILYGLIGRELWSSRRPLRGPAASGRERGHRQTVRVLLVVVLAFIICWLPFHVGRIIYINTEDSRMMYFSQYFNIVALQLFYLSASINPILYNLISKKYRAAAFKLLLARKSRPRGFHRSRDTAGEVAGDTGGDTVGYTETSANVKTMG

[3] = molecular target: Sodium-dependent dopamine transporter (Homo sapiens, UniProt Q01959)
Sequence of Sodium-dependent dopamine transporter (Q01959 whole entry): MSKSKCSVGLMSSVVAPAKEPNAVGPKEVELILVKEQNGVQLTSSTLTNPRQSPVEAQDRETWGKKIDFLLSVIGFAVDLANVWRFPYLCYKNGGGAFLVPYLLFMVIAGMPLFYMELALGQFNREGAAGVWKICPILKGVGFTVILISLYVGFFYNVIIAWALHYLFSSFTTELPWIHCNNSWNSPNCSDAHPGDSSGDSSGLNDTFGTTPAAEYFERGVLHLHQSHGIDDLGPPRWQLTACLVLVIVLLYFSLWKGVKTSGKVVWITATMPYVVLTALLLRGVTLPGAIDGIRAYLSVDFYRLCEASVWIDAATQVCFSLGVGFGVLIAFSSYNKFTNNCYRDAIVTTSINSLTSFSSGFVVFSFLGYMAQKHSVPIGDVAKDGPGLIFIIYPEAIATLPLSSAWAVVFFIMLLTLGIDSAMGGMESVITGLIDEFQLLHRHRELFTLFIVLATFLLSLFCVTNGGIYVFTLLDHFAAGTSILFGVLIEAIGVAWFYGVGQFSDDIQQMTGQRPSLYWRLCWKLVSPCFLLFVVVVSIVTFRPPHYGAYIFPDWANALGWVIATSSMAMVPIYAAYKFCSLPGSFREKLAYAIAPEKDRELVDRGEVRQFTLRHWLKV

[4] = molecular target: Glutamate receptor ionotropic, NMDA 1 (Rattus norvegicus, UniProt P35439)
[5] = molecular target: T4, Alpha-1A adrenergic receptor (Homo sapiens, UniProt P35348); format: functional, cell-based
T4 sequence (P35348 whole entry): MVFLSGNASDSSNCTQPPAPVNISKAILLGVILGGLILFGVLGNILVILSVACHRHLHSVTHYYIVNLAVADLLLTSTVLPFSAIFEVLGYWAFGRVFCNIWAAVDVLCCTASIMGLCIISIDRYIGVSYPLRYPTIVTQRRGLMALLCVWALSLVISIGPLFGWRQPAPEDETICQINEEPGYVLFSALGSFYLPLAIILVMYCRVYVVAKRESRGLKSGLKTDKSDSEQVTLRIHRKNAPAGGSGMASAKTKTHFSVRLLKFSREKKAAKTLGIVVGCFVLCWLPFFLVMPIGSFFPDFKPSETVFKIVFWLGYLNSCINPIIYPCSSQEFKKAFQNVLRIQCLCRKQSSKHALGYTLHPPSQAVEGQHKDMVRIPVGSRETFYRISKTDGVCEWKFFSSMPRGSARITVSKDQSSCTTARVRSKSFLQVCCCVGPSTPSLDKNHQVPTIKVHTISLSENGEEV

[6] = molecular target: Gamma-aminobutyric acid receptor subunit alpha-1 (Rattus norvegicus, UniProt P62813); format: functional
Sequence of Gamma-aminobutyric acid receptor subunit alpha-1 (P62813 whole entry): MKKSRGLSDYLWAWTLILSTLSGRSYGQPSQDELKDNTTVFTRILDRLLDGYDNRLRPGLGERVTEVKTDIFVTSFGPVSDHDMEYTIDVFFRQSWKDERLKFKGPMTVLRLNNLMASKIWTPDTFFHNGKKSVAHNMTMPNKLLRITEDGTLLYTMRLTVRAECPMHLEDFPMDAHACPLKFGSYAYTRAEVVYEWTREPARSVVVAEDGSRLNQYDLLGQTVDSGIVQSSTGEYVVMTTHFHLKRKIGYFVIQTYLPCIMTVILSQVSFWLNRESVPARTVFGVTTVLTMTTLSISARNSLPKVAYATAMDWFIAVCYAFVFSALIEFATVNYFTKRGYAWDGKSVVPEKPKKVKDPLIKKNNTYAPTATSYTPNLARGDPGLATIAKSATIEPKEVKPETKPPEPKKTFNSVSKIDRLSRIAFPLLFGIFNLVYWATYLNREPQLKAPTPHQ

[7] = molecular target: 3',5'-cyclic-AMP phosphodiesterase 4D (Homo sapiens, UniProt Q08499); format: functional
Sequence of 3',5'-cyclic-AMP phosphodiesterase 4D (Q08499 whole entry): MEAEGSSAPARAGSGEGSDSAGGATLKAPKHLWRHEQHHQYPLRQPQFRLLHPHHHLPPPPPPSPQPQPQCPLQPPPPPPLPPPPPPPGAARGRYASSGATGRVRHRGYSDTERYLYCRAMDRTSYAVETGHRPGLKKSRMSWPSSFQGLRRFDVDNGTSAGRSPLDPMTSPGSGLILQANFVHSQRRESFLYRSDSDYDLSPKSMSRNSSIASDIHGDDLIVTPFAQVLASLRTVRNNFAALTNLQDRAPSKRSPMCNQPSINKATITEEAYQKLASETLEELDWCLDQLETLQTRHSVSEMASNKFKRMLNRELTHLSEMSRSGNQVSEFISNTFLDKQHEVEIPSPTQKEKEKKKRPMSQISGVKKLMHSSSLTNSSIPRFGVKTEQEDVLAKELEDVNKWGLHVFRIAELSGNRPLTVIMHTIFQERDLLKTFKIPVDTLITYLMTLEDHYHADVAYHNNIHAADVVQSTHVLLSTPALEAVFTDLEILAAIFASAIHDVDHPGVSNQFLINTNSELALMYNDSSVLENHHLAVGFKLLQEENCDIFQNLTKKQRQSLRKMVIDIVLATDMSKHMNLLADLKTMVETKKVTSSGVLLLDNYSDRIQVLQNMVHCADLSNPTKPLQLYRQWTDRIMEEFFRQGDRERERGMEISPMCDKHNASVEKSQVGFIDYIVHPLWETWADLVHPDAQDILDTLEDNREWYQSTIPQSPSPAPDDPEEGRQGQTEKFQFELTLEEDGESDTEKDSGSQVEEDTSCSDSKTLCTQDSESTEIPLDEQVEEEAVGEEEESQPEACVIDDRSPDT

[8] = molecular target: Delta-type opioid receptor (Homo sapiens, UniProt P41143)
Sequence of Delta-type opioid receptor (P41143 whole entry): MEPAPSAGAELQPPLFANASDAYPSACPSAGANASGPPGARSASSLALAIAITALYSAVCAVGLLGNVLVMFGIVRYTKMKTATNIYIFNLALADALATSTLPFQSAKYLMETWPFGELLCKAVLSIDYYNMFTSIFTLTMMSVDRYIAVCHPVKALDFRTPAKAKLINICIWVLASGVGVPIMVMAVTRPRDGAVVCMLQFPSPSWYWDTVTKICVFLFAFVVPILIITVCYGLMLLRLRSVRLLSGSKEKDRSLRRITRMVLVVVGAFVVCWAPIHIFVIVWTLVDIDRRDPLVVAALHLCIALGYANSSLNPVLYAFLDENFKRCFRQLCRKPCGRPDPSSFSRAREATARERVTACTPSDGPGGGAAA
Further: assay procedure not described here.

Compound	AC50 [1]	AC50 (D(1A) dopamine receptor)	AC50 (Glucocorticoid receptor)	AC50 (Vasopressin V2 receptor)	AC50 [2]	AC50 (Motilin receptor)	AC50 [3]	AC50 [4]	AC50 [5]	AC50 [6]	AC50 [7]	AC50 [8]
Cc1nnc2n1-c1ccc(Cl)cc1C(c1ccccc1Cl)=NC2 [TRIAZOLAM]	> 30 µM	> 10 µM	> 30 µM	> 30 µM	> 10 µM	> 10 µM	> 30 µM	> 10 µM	> 30 µM	0.0011 µM	33 µM	> 30 µM
O=C1C(O)=C([C@H]2CC[C@H](c3ccc(Cl)cc3)CC2)C(=O)c2ccccc21 [ATOVAQUONE]	> 30 µM	> 30 µM	–	> 30 µM	> 30 µM	> 30 µM	> 30 µM	> 30 µM	> 30 µM	> 30 µM	> 30 µM	> 30 µM
CC(C)(C)NCC(O)COc1cccc2c1CCC(=O)N2 (stereo not given) [CARTEOLOL]	> 30 µM	> 10 µM	> 10 µM	> 10 µM	> 10 µM	> 10 µM	> 10 µM	> 10 µM	> 30 µM	> 10 µM	> 30 µM	> 30 µM
Cc1cc(C(C)(C)C)c(O)c(C)c1CC1=NCCN1 [OXYMETAZOLINE]	6.8 µM	> 30 µM	–	–	> 30 µM	–	> 30 µM	> 30 µM	–	> 30 µM	> 30 µM	> 30 µM
CC1(C)CCC(CN2CCN(c3ccc(C(=O)NS(=O)(=O)c4ccc(NCC5CCOCC5)c([N+](=O)[O-])c4)c(Oc4cnc5[nH]ccc5c4)c3)CC2)=C(c2ccc(Cl)cc2)C1 [VENETOCLAX]	–	> 30 µM	–	–	> 30 µM	–	22 µM	–	–	–	> 30 µM	> 30 µM
Fc1ccc(C(c2ccccc2)(c2ccccc2F)n2ccnc2)cc1 (stereo not given) [FLUTRIMAZOLE]	> 30 µM	> 30 µM	> 30 µM	> 30 µM	> 30 µM	27 µM	23 µM	> 30 µM	> 30 µM	> 30 µM	> 30 µM	> 30 µM
Nc1nc(Cl)nc2c1ncn2[C@H]1C[C@H](O)[C@@H](CO)O1 [CLADRIBINE]	> 30 µM	> 30 µM	> 30 µM	> 30 µM	> 30 µM	> 30 µM	> 30 µM	> 30 µM	> 30 µM	–	0.97 µM	> 30 µM
COc1cccc(C2(O)CCCCC2CN(C)C)c1 (stereo not given) [TRAMADOL]	> 30 µM	> 10 µM	> 30 µM	> 30 µM	> 10 µM	> 10 µM	> 10 µM	> 10 µM	> 30 µM	> 10 µM	> 30 µM	> 30 µM
C[C@@H]1O[C@@H](O[C@@H]2C=C3CC[C@@H]4[C@H](CC[C@]5(C)[C@@H](c6ccc(=O)oc6)CC[C@]45O)[C@@]3(C)CC2)[C@H](O)[C@H](O)[C@H]1O [PROSCILLARIDIN]	> 30 µM	> 30 µM	> 30 µM	> 30 µM	> 30 µM	> 30 µM	> 30 µM	> 30 µM	> 30 µM	> 30 µM	> 30 µM	> 30 µM
